The text below walks through data of PMC5543288, “Psychostimulant Effect of the Synthetic Cannabinoid JWH-018 and AKB48: Behavioral, Neurochemical, and Dopamine Transporter Scan Imaging Studies in Mice” (Frontiers in Psychiatry, 2017).

Structures can show the parent of a compound that is named as a salt. Where two headings read alike, the source gives them in different places.

Assay [1] has as its target T1, human DAT (Homo sapiens, UniProt Q01959).
T1 construct: purchased Perkin Elmer; host or cells: CHO cells transfected with human DAT (membrane preparation)
Put plainly: [3H]-WIN 35,428 competition binding, CHO membranes transfected with human DAT. As to the method: At the end of the incubation time, bound and free radioactivity were separated by filtering the assay mixture through Whatman GF/B glass fiber filters in a Brandel cell harvester (Brandel, Unterföhring, Germany).

Assay [2] addresses T2, mouse DAT (Mus musculus, UniProt Q61327).
T2 construct: DAT expressed in mouse striatal nerve terminals; from tissue; host or cells: mouse striatum, crude synaptosomal (P2) fraction
As to the kind of experiment: [3H]-WIN 35,428 competition binding, mouse striatal synaptosomes. As to the method:
Competition binding experiments were carried out incubating 8 nM [^3H]-WIN 35,428 (specific activity 84 Ci/mmol; Perkin Elmer, Boston, MA, USA) with CHO membranes transfected with human DAT (Perkin Elmer) or mouse striatal synaptosomes with different concentration of the examined compounds for 120 min at 4°C. Non-specific binding was determined in the presence of 1 µM GBR 12783. At the end of the incubation time, bound and free radioactivity were separated by filtering the assay mixture through Whatman GF/B glass fiber filters in a Brandel cell harvester (Brandel, Unterföhring, Germany). Filter bound radioactivity was counted in a Perkin Elmer 2810TR scintillation counter (Perkin Elmer).
(§1) On the day of the experiment, the animal was euthanized, the brain was rapidly removed, and both striata isolated. Thereafter, a crude synaptosomal (P2) fraction was prepared as follows: the striata were suspended in ice-cold buffered sucrose solution (0.32 M, pH 7.4) and homogenized. The homogenate was centrifuged (10 min, 2,100 g, 4°C) to remove nuclei and debris. The supernatant was further centrifuged at 13,500 g for 20 min at 4°C. For [^3H]-WIN 35,428 binding experiments, the P2 pellet was resuspended in 50 mM Tris–HCl, 100 mM NaCl, pH 7.4. For [^3H]-DA release experiments, the P2 pellet was then resuspended in 5 ml of Kreb’s solution (mM: NaCl 118; KCl 4.4; CaCl2 1.2; MgSO4 1.2; KH2PO4 1.2; NaHCO3 25; glucose 10), gassed 20 min with a mixture of 95% O2 plus 5% CO2 containing [^3H]-DA (50 nM; Perkin Elmer, Monza, Italy), disodium EDTA (0.03 mM), and ascorbic acid (0.05 mM; to prevent [^3H]-DA degradation).

In assay [3] the test system is male CD-1 mice. As to the kind of experiment: Spontaneous locomotor activity (ANY-maze video tracking). Format: in vivo, mouse. The conditions noted are these: for immobility time: AKB48 1 mg/kg (30 min after administration); for immobility time / total distance traveled (spontaneous locomotion): amphetamine 10 mg/kg; for immobility time / total distance traveled (spontaneous locomotion) / duration of the increase of spontaneous locomotion / time spent in the peripheral arena: cocaine 20 mg/kg; for total distance traveled (spontaneous locomotion): monitored 240 min; for spontaneous locomotion, antagonist by itself: AM 251 1 mg/kg i.p., SCH23390 0.1 mg/kg i.p., haloperidol 0.05 mg/kg i.p.; for time spent in the peripheral arena: acute i.p.: amphetamine 10 mg/kg. As to the method: Drugs were administered by intraperitoneal injection in a volume of 4 μl/g. The used doses of JWH-018 (0.3 and 1 mg/kg i.p.) and AKB48 (0.3 and 1 mg/kg i.p.) were chosen based on previous studies ([6], [7], [9], [10]).
The spontaneous locomotor activity was measured by using the ANY-maze video tracking system (Ugo Basile, application version 4.99 g Beta). The mouse was placed in a square plastic cage (60 cm × 60 cm) located in a sound- and light-attenuated room and motor activity was monitored for 240 min. Four mice were monitored in parallel in each experiment. Parameters measured were distance traveled (meter), total time in the peripheral zone (seconds), total time in the central zone (seconds), and immobility time (seconds; the animal was considered immobile when 95% of his image remained in the same place for at least 2 s). Parameters were analyzed every 15 min for a maximum of 240 min and to avoid mice olfactory cues, cages were carefully cleaned with a dilute (5%) ethanol solution and washed with water between animal trials. All experiments were performed between 9:00 a.m. and 1:00 p.m.

For assay [4], the target named is T3, dopamine transporter (DAT) in the mouse striatum (Mus musculus, UniProt Q61327).
T3 construct: from tissue; host or cells: striatum of living CD-1 male mice (in vivo imaging)
As to the kind of experiment: In vivo DaTSCAN SPECT-CT imaging, striatal [123I]-FP-CIT binding. The conditions noted are these: i.p. 30 min before tracer: cocaine 20 mg/kg, amphetamine 10 mg/kg, JWH-018 1 mg/kg, AKB48 1 mg/kg.
Experimental: 18 CD-1 male mice were divided into six different groups (three mice per treatment). […] A control group (i.e., naïve untreated mice) was also included in the study. Thirty minutes after drug administration, all mice were submitted to an intravenous injection with a solution of [^123I]-DaTSCAN (15–20 MBq, ≤200 µl). The body temperature of the animals was maintained at 37°C during the imaging sessions and under the cage, between imaging sessions, using a heating lamp. The SPECT–CT whole-body images were acquired at 1 h and 30 min after [^123I]-FP-CIT injection, with the initial tomographic acquisition starting nearly 15 min after the injection. Each SPECT-CT whole-body acquisition consisted of one bed positions (36 mm), 60 min, 128 views over 360 ([35]). The used energy window is 119–219 keV and the images were reconstructed by using the iterative EM-ML algorithm, including the collimator response. CT images have been acquired, using the digital X-ray imaging system integrated into the YAP(S)PET scanner ([36]). Acquisition parameters for X-ray projections were X-ray tube voltage = 35 keV, anode current = 1 mA, exposure = 1 s, 64 views over 360, and magnification factor = 1.2. Subtraction of dark noise contribution and flat field corrections was accomplished to obtain final images. The CT data were reconstructed by using the FDK algorithm. Amide software ([37]) has been used for images’ registration, visualization and analysis. The size of the ROIs was voxels (100 mm^3 volume), corresponding to entire striatum. These ROIs were used as a template. To avoid the variability of the slice selection and to gain statistical power, the entire striatum volume for the analysis was used. The template was positioned manually (without changing the size and form of the ROIs) on the SPECT images with the backing of anatomical information from LONI MAP 2003 MRI mouse atlas ([38], [39]). For analysis of striatal [^123I]-FP-CIT binding, two consecutive horizontal slices (total thickness approximately 4 mm) with the highest striatal binding were selected. The landmarks for positioning were the intra-orbital glands, striatum, and the borders of the brain. Striatal binding ratios are expressed as average activity per unit volume [Bq/mm^3], each value has been calculated as the ratio between the activity inside the ROI and the ROI volume, normalized for injected activity and for mouse brain weight.

Assay [5] deals with DA release in the nucleus accumbens (NAc) shell. As to the kind of experiment: In vivo brain microdialysis, NAc shell extracellular DA. Also noted: species or system mouse. Here is the method: Male ICR (CD-1®) mice, 25–30 g (ENVIGO. Harlan Italy; S. Pietro al Natisone, Italy) were anesthetized with Isoflurane (3%; 200 ml/min) and implanted with vertical dialysis probe (1 mm dialyzing portion) prepared with AN69 fibers (Hospal Dasco, Bologna, Italy) in the NAc shell (A + 1.4, L 0.4 from bregma, V-4.8 from dura) according to the mouse brain atlas by Paxinos and Franklin ([40]). On the day following surgery, probes were perfused with Ringer’s solution (147 mM NaCl, 4 mM KCl, 2.2 mM CaCl2) at a constant rate of 1 µl/min. Dialyzate samples (10 µl) were injected into an HPLC equipped with a reverse phase column (C8 3.5 um, Waters, USA) and a coulometric detector (ESA, Coulochem II) to quantify DA. The first electrode of the detector was set at +130 mV (oxidation) and the second at −175 mV (reduction). The composition of the mobile phase was as follows: 50 mM NaH2PO4, 0.1 mM Na2-EDTA, 0.5 mM n-octyl sodium sulfate, 15% (v/v) methanol, pH 5.5. […] At the end of each experiment, animals were sacrificed and their brains removed and stored in formalin (8%) for histological examination to verify the correct placement of the microdialysis probe.

The test system of assay [6] is spontaneous [3H]-DA efflux from mouse striatal synaptosomes. As to the kind of experiment: Spontaneous [3H]-DA release from striatal synaptosomes. It counts as biochemical. The conditions noted are these: amphetamine 10 µM, cocaine 100 nM, JWH-018 and AKB48 100 nM and 1 µM. As to the method:
as §1
After synaptosomal preparation, 0.5 ml aliquots of the suspension were distributed on microporous filters placed at the bottom of a set of parallel superfusion chambers maintained at 37°C and perfused with aerated (95% O2/5% CO2) Kreb’s solution (0.3 ml/min). After 30 min of superfusion to equilibrate the system, 5-min fractions were collected from the 30th to the 75th min (nine samples). […] At the end of the experiment, the radioactivity of the samples and filters was determined by liquid scintillation spectrometry (LS1800 Beckman). In view of the results obtained, in a separate set of experiments, [^3H]-DA uptake was also evaluated.

Assay [7] relates to [3H]-DA uptake in mouse striatal synaptosomes. As to the kind of experiment: [3H]-DA uptake in striatal synaptosomes. It counts as biochemical. The conditions noted are these: for reduction of [3H]-DA uptake: cocaine 1 µM, amphetamine 1 µM, added 5 min before 50 nM [3H]-DA, 10 min at 37°C. As to the method: as §1
After synaptosomal preparation, the suspension was maintained under a light and continuous oxygenation (95% O2, 5% CO2) for 20 min at 37°C. Thereafter, 0.5 ml aliquots of striatal synaptosomal suspension were prepared. […] After this period, the reaction was stopped by filtration through microporus nylon filters (0.45 µm, 13 mm; Analytical Technology, Brugherio, Italy). The filters were then washed with 1 ml ice-cold Kreb’s solution and the radioactivity accumulated on synaptosomes was extracted by eluting two times with 1 ml of warm NaOH (1 N) and then determined by liquid scintillation spectrometer. Non-specific uptake was measured by following the same procedure at 0°C.

The target of assay [8] is CD-1 murine CB1 receptors. The conditions noted are these: ref [6]; read-out: Ki for CB1 receptors, CD-1 murine preparation; cited from earlier work.
[9] abbreviates: acute i.p.: JWH-018 0.3 mg/kg, AKB48 1 mg/kg.

T3 sequence (Q61327 whole entry): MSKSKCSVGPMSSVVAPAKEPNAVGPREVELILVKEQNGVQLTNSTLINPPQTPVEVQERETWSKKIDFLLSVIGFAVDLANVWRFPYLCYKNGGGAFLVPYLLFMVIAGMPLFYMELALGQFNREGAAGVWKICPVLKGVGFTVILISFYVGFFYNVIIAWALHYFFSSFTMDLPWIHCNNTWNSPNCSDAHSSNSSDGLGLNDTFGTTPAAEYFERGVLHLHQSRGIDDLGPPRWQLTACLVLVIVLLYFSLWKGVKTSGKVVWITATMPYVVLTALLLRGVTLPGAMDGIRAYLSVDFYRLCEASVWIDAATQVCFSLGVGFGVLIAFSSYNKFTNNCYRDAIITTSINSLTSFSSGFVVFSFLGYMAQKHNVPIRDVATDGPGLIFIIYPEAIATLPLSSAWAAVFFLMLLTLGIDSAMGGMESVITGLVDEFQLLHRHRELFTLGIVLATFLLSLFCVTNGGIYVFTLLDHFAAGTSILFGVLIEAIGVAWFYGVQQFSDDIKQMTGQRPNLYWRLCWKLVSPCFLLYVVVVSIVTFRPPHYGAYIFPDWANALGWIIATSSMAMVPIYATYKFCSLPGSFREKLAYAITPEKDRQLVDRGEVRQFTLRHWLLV
T2 sequence (Q61327 whole entry): as above
T1 sequence (Q01959 whole entry): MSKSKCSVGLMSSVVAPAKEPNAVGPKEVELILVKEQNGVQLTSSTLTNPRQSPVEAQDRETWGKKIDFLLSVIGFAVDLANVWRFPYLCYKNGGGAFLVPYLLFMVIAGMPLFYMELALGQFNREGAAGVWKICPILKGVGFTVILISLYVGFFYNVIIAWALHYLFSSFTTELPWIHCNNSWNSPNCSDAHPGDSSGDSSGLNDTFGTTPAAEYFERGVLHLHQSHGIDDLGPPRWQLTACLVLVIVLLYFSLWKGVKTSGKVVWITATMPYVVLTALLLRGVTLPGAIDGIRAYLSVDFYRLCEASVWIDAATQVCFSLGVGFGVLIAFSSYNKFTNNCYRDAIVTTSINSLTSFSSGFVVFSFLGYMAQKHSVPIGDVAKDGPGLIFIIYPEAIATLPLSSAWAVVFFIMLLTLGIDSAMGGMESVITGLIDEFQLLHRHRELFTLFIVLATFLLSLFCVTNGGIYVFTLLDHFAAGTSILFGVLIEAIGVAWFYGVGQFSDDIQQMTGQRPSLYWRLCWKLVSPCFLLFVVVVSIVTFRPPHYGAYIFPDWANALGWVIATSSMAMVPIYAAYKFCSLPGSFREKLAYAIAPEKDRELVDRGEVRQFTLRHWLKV

Turning to `CCCCCn1nc(C(=O)NC23CC4CC(CC(C4)C2)C3)c2ccccc21` [AKB48, N-(1-adamantyl)-1-pentyl-1H-indazole-3-carboxamide], the Ki in assay [1] came out at 4590 nM. This compound also had a Ki in assay [2] of more than 10000 nM. In addition, the “facilitation of spontaneous locomotion after pretreatment with AM 251” value in assay [3] (JWH-018 0.3 mg/kg, AKB48 1 mg/kg, AM 251 1 mg/kg i.p. 20 min before) is “prevented”. Also, the “facilitation of spontaneous locomotion after coadministration of SCH23390 and haloperidol” value in assay [3] (JWH-018 0.3 mg/kg, AKB48 1 mg/kg, SCH23390 0.1 mg/kg i.p. + haloperidol 0.05 mg/kg i.p. 20 min before) is “prevented”. Moreover, in assay [3] (setting [9]), the “time in the central zone versus peripheral area of the cage” value is recorded as “spent more time in the central zone”, the “total distance traveled (spontaneous locomotion)” value (shortened to “total distance traveled”) is “facilitated the spontaneous locomotion only in the first 15 min” and the “duration of the increase of spontaneous locomotion” value was 15 min. Moreover, the immobility time entry in assay [3] (acute i.p.: JWH-018 0.3 mg/kg) was “increased”. The “reduction of [123I]-FP-CIT binding in the striatum” value (shortened to “reduction of [123I]-FP-CIT binding”) in assay [4] is listed as ~ 42%. Also, in assay [5] (AKB48 0.3 mg/kg i.p.), the “time of peak extracellular DA level after administration” value worked out at 40 min. Moreover, the “increase of NAc shell extracellular DA levels (maximal/peak)” value in assay [5] (JWH-018 0.3 mg/kg i.p. (long-lasting), AKB48 0.3 mg/kg i.p. (peak)) is ~ 150 % of baseline values. Moreover, in assay [5] (awake freely moving mice, i.p.: amphetamine 10 mg/kg, cocaine 20 mg/kg, JWH-018 0.3 mg/kg, AKB48 0.3 mg/kg), the “NAc shell extracellular DA levels” value is on record as “significantly increased”. Besides, the “spontaneous [3H]-DA efflux from striatal synaptosomes” value (“spontaneous [3H]-DA efflux” below) in assay [6] is recorded as “did not affect”. In assay [7] (GBR 12783 20 nM, JWH-018 and AKB48 100 nM and 1 µM), the “effect on [3H]-DA uptake” value was “ineffective”. Besides, the Ki in assay [8] is 5.34 nM.
On to `CN1CCc2cc(Cl)c(O)cc2C(c2ccccc2)C1` (centres unmarked) [SCH23390, 8-chloro-3-methyl-5-phenyl-1,2,4,5-tetrahydro-3-benzazepin-7-ol, reference compound], for which the “spontaneous locomotion, antagonist by itself” value in assay [3] is listed as “did not alter the spontaneous locomotion”.
Same read-out and setting: under `Cc1c(C(=O)NN2CCCCC2)nn(-c2ccc(Cl)cc2Cl)c1-c1ccc(I)cc1` [AM 251, reference compound] stands “did not alter the spontaneous locomotion”.
Turning to `C(=C\c1ccccc1)/CN1CCN(CCOC(c2ccccc2)c2ccccc2)CC1` [GBR 12783, 1-(2-benzhydryloxyethyl)-4-[(E)-3-phenylprop-2-enyl]piperazine;dihydrochloride, reference compound], the Ki stood at 1.93 ± 0.14 nM in assay [1] (8 nM [3H]-WIN 35,428, 120 min at 4°C, mean ± SEM, read-out: hDAT-CHO membranes Ki) and 1.72 ± 0.11 nM in assay [2] (8 nM [3H]-WIN 35,428, 120 min at 4°C, mean ± SEM, read-out: Mouse striatal synaptosomes Ki).
`CC(N)Cc1ccccc1` (centres unmarked) [Amphetamine, reference compound] displayed a Ki in assay [2] of 622 ± 53 nM. Further, in assay [3] (acute i.p.: JWH-018 0.3 mg/kg), the immobility time entry is on record as “reduced the immobility time”. Besides, the “total distance traveled” value in assay [3] (setting [9]) was “induced long-lasting increases”. Further, in assay [3], the “time spent in the peripheral arena” value is “increase the time spent in the peripheral arena”. Moreover, in assay [4], the “reduction of [123I]-FP-CIT binding” value is reported as ~ 25%. Further, in assay [6], the “spontaneous [3H]-DA efflux” value is “induced a significant increase”. In assay [7], the “reduction of [3H]-DA uptake” value is approximately 40%.
As to `O=C(CCCN1CCC(O)(c2ccc(Cl)cc2)CC1)c1ccc(F)cc1` [haloperidol, 4-[4-(4-chlorophenyl)-4-hydroxypiperidin-1-yl]-1-(4-fluorophenyl)butan-1-one, reference compound], in assay [3], the “spontaneous locomotion, antagonist by itself” value is recorded as “did not alter the spontaneous locomotion”.
Regarding `COC(=O)[C@H]1[C@@H](OC(=O)c2ccccc2)C[C@@H]2CC[C@H]1N2C` [Cocaine, reference compound], in assay [2], the Ki stood at 193 ± 16 nM. Further, in assay [3] (acute i.p.: JWH-018 0.3 mg/kg), the immobility time entry is given as “reduced the immobility time”. Also, in assay [3] (setting [9]), the “total distance traveled” value is “induced long-lasting increases” and the “duration of the increase of spontaneous locomotion” value is on record as 90 min. Further, the “time spent in the peripheral arena” value in assay [3] is on record as “increase the time spent in the peripheral arena”. Further, in assay [4], the “reduction of [123I]-FP-CIT binding” value was ~ 40%. Besides, in assay [6], the “spontaneous [3H]-DA efflux” value is given as “induced a significant increase”. For the same compound, the “reduction of [3H]-DA uptake” value in assay [7] is on record as approximately 50%.
